Assay results as given in patent US20140045805A1, “Fragrance Compositions and Other Compositions Which Contain Naturally Occurring Substances Found in Corals” (priority 2007, published 2014).

Legend:
[1] = tested on: healthy volunteers (men and women); experiment: Behavioral effects by modified DABS-70 inventory after nasal exposure; type: in vivo, human; settings: 12 ng nasal
[2] = tested on: healthy volunteers (men and women); experiment: Physiologic parameters (electrophysiology) after nasal exposure; type: in vivo, human; design: Mean MA, BT (body temperature) / Mean MA, EMG (electromyogram) / Mean MA, BR (blinking reflex) / Mean MA, EEG-A (alpha cortical activity) / Mean MA, EEG-B (beta cortical activity) / Mean MA, EEG-T (theta cortical activity) / Mean MA, EDA (electrodermal activity): unit not given here; settings: for Mean MA, BR (blinking reflex) / Mean MA, BT (body temperature) / Mean MA, EDA (electrodermal activity) / Mean MA, EEG-A (alpha cortical activity) / Mean MA, EEG-B (beta cortical activity) / Mean MA, EEG-T (theta cortical activity) / Mean MA, EMG (electromyogram) / Mean MA, HR (heart rate) / Mean MA, RR (respiration rate): 12 ng/20 min airborne nasal; for % Change MA, BR (blinking reflex) / % Change MA, EDA (electrodermal activity) / % Change MA, EEG-A (alpha cortical activity) / % Change MA, EEG-B (beta cortical activity) / % Change MA, EEG-T (theta cortical activity) / % Change MA, EMG (electromyogram) / % Change MA, HR (heart rate) / % Change MA, RR (respiration rate): 12 ng, vs baseline-2
Protocol: We assessed the resulting physiological responses and behavioral changes induced by nasal exposure to 12 ng pregna-5,20-dien-3β-ol in 76 volunteers (38 women and 38 men), age 18 to 46 (Table 1) using a placebo-controlled, single blind and crossover study design. The items of the modified DABS-70 were rearranged during consecutive administrations, in order to minimize the effect of learning.
Upon completion of the first DABS-70, each subject was invited to rest supine in a comfortable medical bed in a quiet room and several non-invasive electrode leads and transducers were positioned on the surface skin of the arms, face and skull to help measure physiologic parameters (FIG. 4). A conventional grounding electrode and a reference electrode lead were positioned on the surface skin of the mastoid process and the right ear lobe respectively, with the aid of hypoallergenic conductive paste. Other non-invasive standard electrode-leads and transducers were used for recording the following physiologic parameters: • Electrocardiogram (EKG), standard bipolar I. • Electropneumogram (EPG), strain gauge around lower thorax. • Electrodermal activity (EDA), palm surface of 3rd and 4th finger (right hand). • Blinking reflex (BR), upper and lower left eye-lid. • Electromyogram (EMG), bilaterally in chin area. • Body temperature (BT), mini-thermistor probe in external ear canal. • Electroencephalogram (EEG), CzA2 and T4A2 from the […] International EEG electrode placement chart.
During the course of a recording session, physiologic readings were performed in four consecutive instances, before and after randomized administration of active substance or control (FIG. 4): PHYS-1 recording, starting 5 minutes before the first randomized dosing; PHYS-2, starting 15 minutes after administration of the first randomized dosing; PHYS-3, starting 5 minutes before administration of the second randomized dosing; and PHYS-4 starting 15 minutes after administration of the second randomized dosing.
All physiological recordings were pre-amplified and digitized (Biopac Systems), and continuously computer monitored and stored (Macintosh G3), for further off-line processing and analysis (for a detailed explanation see Monti-Bloch et al, 1994, 1998).
Active substance (pregna-5,20-dien-3β-ol) and control were freshly prepared on 0.7 cm×10 cm perfumery grade smelling strips 24 hours before the experiment. A perfumery grade smelling strip was positioned on the upper lip of the subject for delivery of control or active substance to the nasal passages for a period of 20 minutes. Each breath carried vapors of pregna-5,20-dien-3β-ol or control (air) from the paper strip to the nasal passages.
Perfumery grade smelling strips containing either pregna-5,20-dien-3β-ol or control were prepared as follows: 100 μl of stock solution containing 100 mg pregna-5,20-dien-3β-ol/10 mL ethanol (95%) was added to a clean paper strip. Ethanol was allowed to evaporate overnight in a clean fume hood, and 1 mg of dry crystals of pregna-5,20-dien-3β-ol remained embedded in the dried perfumery grade smelling strip. Control was a perfumery grade smelling strip prepared following the same procedure but the solution was devoid of active substance.
The following assumptions were used to calculate the quantity of pregna-5,20-dien-3β-ol delivered to the nasal passages during a study session: a) the quantity of pregna-5,20-dien-3β-ol arriving to the nasal passages with each breath is ≈40 pg (determined as described below); b) the average respiratory rate at rest in men and women is ≈15 breaths per minute; and c) the subject was exposed to pregna-5,20-dien-3β-ol for 20 min during the entire study session. The total calculated quantity of pregna-5,20-dien-3β-ol delivered to the nasal passages over 20 min (exposure during the study session) was calculated as follows: 40 pg/breath×15 breaths/min×20 min=12000 pg=12 ng. […]

[3] = molecular target: T1, human testicular 17α Hydroxylase/C17-20-Lyase (Homo sapiens, UniProt P05093); settings: Li et al. 1996; Brodie et al. U.S. Pat. No. 5,994,334; cited from earlier work
T1 sequence (P05093 1-508): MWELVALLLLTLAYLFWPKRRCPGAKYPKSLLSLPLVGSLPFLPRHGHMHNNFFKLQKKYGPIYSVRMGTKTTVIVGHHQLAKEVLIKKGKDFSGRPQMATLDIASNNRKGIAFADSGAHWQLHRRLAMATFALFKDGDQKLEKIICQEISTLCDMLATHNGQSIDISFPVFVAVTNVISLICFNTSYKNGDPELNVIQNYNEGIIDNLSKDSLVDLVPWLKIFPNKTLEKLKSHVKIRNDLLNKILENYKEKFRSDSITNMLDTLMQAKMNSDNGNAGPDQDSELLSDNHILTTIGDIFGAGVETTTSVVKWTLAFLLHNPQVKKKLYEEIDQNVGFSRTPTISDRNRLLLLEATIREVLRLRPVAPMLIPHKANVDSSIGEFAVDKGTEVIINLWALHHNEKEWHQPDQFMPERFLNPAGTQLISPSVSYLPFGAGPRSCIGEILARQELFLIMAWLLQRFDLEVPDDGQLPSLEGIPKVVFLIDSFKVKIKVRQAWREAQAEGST

[4] = men, listed as Pregna-5,20-dien-3β-ol
[5] = women, listed as Pregna-5,20-dien-3β-ol

## C=C[C@H]1CC[C@H]2[C@@H]3CC=C4C[C@@H](O)CC[C@]4(C)[C@H]3CC[C@]12C [pregna-5,20-dien-3β-ol, Pregna-5,20-dien-3β-ol]
[1]; listed as muricin aglycone
  Negativity cluster, response versus control: no effect on negativity
[1]; regardless of gender, p<0.00001, listed as muricin aglycone
  Social Warmth and Friendliness cluster, overall response versus control: enhanced levels
[2]; men
  Mean MA, BR (blinking reflex): 25.970
  Mean MA, BT (body temperature): −0.011
  Mean MA, EDA (electrodermal activity): 3.467
  Mean MA, EEG-A (alpha cortical activity): 29.613
  Mean MA, EEG-B (beta cortical activity): 57.853
  Mean MA, EEG-T (theta cortical activity): 17.630
  Mean MA, EMG (electromyogram): 20.067
  Mean MA, HR (heart rate): 66.323
  Mean MA, RR (respiration rate): 13.133
  % Change MA, BR (blinking reflex): −22.392%
  % Change MA, EDA (electrodermal activity): 44.458%
  % Change MA, EEG-A (alpha cortical activity): 2.798%
  % Change MA, EEG-B (beta cortical activity): −13.691%
  % Change MA, EEG-T (theta cortical activity): 14.036%
  % Change MA, EMG (electromyogram): 64.524%
  % Change MA, HR (heart rate): −2.609%
  % Change MA, RR (respiration rate): −19.097%
[2]; [4]
  % Change MA, EEG-A (alpha cortical activity): did not have a significant effect
  % Change MA, EEG-B (beta cortical activity): did not have a significant effect
  % Change MA, HR (heart rate): −2.6%
[2]; women
  Mean MA, BR (blinking reflex): 28.483
  Mean MA, BT (body temperature): 0.064
  Mean MA, EDA (electrodermal activity): 3.379
  Mean MA, EEG-A (alpha cortical activity): 27.724
  Mean MA, EEG-B (beta cortical activity): 61.069
  Mean MA, EEG-T (theta cortical activity): 17.897
  Mean MA, EMG (electromyogram): 25.276
  Mean MA, HR (heart rate): 64.828
  Mean MA, RR (respiration rate): 13.379
  % Change MA, BR (blinking reflex): −31.859%
  % Change MA, EDA (electrodermal activity): 71.784%
  % Change MA, EEG-A (alpha cortical activity): −14.871%
  % Change MA, EEG-B (beta cortical activity): −1.023%
  % Change MA, EEG-T (theta cortical activity): 24.001%
  % Change MA, EMG (electromyogram): 55.545%
  % Change MA, HR (heart rate): −3.000%
  % Change MA, RR (respiration rate): −16.030%
[2]; [5]
  % Change MA, EEG-A (alpha cortical activity): did not have a significant effect
  % Change MA, EEG-B (beta cortical activity): did not have a significant effect
  % Change MA, HR (heart rate): −3.0%
  % Change MA, RR (respiration rate): −16.03%
[3]
  Inhibition of human testicular 17α Hydroxylase/C17-20-Lyase: little activity
